{"source": "patent US20230165818A1", "about": "“COMPOSITION FOR REDUCING HEPATIC TRIGLYCERIDES AND/OR IMPROVING GLUCOSE METABOLISM” (Compagnie Gervais Danone, priority 2020, published 2023)", "key": {"L6 myocytes": {"test_system": "L6 myocytes", "test": "Glucose uptake in L6 muscle cells", "type": "cell-based", "conditions": "0.01, 0.1 or 1 μM, basal and insulin conditions (FIGS. 2G and H)", "procedure": "FIG. 2. (A) HGP of FAO cells treated with a 1 mM mixture of HICA: HIVA: HMVA at molar ratio 1:1:0.5 in basal condition. (B) HGP of FAO cells treated with a 1 mM mixture of HICA: HIVA: HMVA at molar ratio 1:1:0.5 in insulin condition. (C) HGP of FAO cells treated with 0.5 and 1 mM of HICA, leucine or combination of both in basal condition. (D) HGP of FAO cells treated with 0.5 and 1 mM of HICA, leucine or combination of both in insulin condition. (E) Glucose uptake of L6 muscle cells treated with a 0.1 or 1 μM mixture of HICA: HIVA: HMVA at molar ratio 1:1:0.5 in basal condition. (F) Glucose uptake of L6 cells treated with a 0.1 or 1 μM mixture of HICA: HIVA: HMVA at molar ratio 1:1:0.5 in insulin condition. (G) Glucose uptake of L6 cells treated with 0.01, 0.1 or 1 μM of HICA in basal condition. (H) Glucose uptake of L6 cells treated with 0.01, 0.1 or 1 μM of HICA in insulin condition.*p<0.05 versus control, **p<0.01 versus control, ***p<0.001 vs control, kp<0.05 versus Leu 0.5 mM, ^$ p<0.05 versus Leu 1 mM, ^$$ p<0.01 versus Leu 1 mM, ^$$$ p<0.001 versus Leu 1 mM. For panel C, D, G, H expressed in fold, basal and basal insulin are considered as a reference and represented by a dash line.\nThe Inventors elected to test the hypothesis that BCHA could exert direct effects in relevant cells. […]"}, "FAO rat hepatocytes": {"test_system": "FAO rat hepatocytes", "test": "Hepatic glucose production (HGP) in FAO cells", "type": "cell-based", "procedure": "FAO rat hepatocytes were maintained in RPMI 1640 medium (Invitrogen) supplemented with 10% FBS. Cells were maintained in this medium 48 h before treatment. They were then serum-deprived overnight for 16 h with or without insulin (1 nM) and with HICA, HIVA or HMVA product at 10 nM, 100 nM, 1 μM, 10 μM, 100 μM and 1 mM. The cells were washed three times with PBS and incubated with phenol red- and glucose-free DMEM medium supplemented with 20 mM sodium L-lactate and 2 mM sodium pyruvate for 5 h with or without insulin and the indicated study treatment. Cell supernatant was collected, and glucose concentration was measured with the Amplex-Red Glucose assay kit accordingly to the manufacturer's instructions (Invitrogen). Cells were lysed with 50 mM NaOH, and protein concentration was determined using a BCA protein assay kit to normalize glucose production."}}}
{"smiles": "CC(C)CC(O)C(=O)O", "note": "(stereo not drawn) [HICA, alpha-hydroxyisocaproic acid]", "values": [{"measurement": "glucose uptake, individual BCHA", "setting": "L6 myocytes", "result": "these effects appeared to be mostly explained by HICA"}, {"measurement": "effect on HGP in combination with leucine", "setting": "FAO rat hepatocytes; 0.5 and 1 mM HICA combined with leucine (FIGS. 2C and D)", "result": "competed the effect of its BCAA leucine precursor"}, {"measurement": "basal HGP", "setting": "FAO rat hepatocytes; 0.5 and 1 mM, basal condition (FIG. 2C)", "result": "dose-dependently inhibited"}, {"measurement": "insulin-suppressed HGP", "setting": "FAO rat hepatocytes; 0.5 and 1 mM, insulin condition (FIG. 2D)", "result": "dose-dependently inhibited"}]}
